Earlier results, collected in US20260373193A1, “CARCINOGENESIS REDUCTION WITH PENTAAZA MACROCYLIC RING COMPLEX” (GALERA LABS, LLC, priority 2023, published 2026).

What was measured:
[1] = tested on: VEGFr inhibitor-induced pulmonary disease; conditions: rat; cited from earlier work
[2] = tested on: kidney damage from cisplatin; conditions: cisplatin therapy for cancer; cited from earlier work
[3] = tested on: Non-Small Cell Lung Carcinoma Cell Lines; conditions: NSCLC cell lines; with cisplatin or cisplatin plus radiation; cited from earlier work
established tumors = conditions: cited from earlier work

## [Cl][Mn][Cl].c1cc2nc(c1)CN[C@H]1CCCC[C@@H]1NCCN[C@H]1CCCC[C@@H]1NC2 [GC4419]
[1]
  pulmonary disease: attenuate VEGFr inhibitor-induced pulmonary disease
[2]
  kidney damage from cisplatin: reduce kidney damage from cisplatin therapy
[3]
  response to cisplatin and cisplatin plus radiation: Enhances the Response of Non-Small Cell Lung Carcinoma Cell Lines to Cisplatin and Cisplatin Plus Radiation
Established tumors
  efficacy of radiation and other therapies: enhance the efficacy of radiation and other therapies
